Biological target: Hepatocyte growth factor receptor (Homo sapiens, UniProt P08581)
Experiment: Met Kinase Inhibition Assay
Conditions: pH 7.5; 30 °C

Hepatocyte growth factor receptor, sequence (P08581 whole entry): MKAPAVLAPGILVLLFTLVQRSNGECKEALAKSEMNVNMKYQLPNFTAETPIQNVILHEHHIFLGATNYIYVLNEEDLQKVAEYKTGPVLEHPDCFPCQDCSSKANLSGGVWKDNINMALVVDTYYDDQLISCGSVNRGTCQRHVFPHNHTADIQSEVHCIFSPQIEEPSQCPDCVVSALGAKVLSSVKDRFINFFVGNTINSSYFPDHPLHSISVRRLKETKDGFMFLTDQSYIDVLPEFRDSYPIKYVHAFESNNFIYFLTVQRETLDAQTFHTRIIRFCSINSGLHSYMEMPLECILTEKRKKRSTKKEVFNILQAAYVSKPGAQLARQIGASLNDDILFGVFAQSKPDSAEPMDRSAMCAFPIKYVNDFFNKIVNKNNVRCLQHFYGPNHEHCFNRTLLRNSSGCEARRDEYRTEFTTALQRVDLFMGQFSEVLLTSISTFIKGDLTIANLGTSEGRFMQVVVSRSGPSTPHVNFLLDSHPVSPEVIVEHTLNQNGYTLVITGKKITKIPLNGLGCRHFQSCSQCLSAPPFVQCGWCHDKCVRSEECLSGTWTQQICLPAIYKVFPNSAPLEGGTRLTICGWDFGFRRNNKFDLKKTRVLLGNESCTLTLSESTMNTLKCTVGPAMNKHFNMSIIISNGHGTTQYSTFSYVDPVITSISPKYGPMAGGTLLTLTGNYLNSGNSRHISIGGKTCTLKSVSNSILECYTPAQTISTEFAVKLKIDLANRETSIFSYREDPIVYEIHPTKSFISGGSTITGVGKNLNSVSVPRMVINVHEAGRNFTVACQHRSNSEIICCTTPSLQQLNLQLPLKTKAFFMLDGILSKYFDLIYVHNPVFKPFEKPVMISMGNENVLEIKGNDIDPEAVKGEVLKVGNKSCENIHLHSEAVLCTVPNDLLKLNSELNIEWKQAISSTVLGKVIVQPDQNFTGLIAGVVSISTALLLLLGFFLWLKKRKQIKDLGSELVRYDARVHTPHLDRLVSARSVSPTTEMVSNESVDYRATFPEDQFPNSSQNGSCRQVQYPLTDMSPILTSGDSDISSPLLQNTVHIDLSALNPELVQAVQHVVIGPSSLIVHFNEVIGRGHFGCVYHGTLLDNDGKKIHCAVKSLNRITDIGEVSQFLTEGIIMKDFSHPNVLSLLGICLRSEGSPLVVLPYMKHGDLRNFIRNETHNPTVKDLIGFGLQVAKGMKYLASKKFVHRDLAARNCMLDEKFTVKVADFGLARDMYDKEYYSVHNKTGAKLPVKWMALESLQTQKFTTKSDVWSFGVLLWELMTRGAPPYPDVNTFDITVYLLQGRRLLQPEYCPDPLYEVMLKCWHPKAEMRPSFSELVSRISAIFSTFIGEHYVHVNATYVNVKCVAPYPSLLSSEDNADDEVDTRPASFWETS

Compound	IC50 [nM]
COc1ccc(-n2cc(C(=O)Nc3ccc(Oc4ccnc5[nH]ccc45)c(F)c3)c(=O)c(-c3ccc(F)cc3)c2)cc1F [1-(3-fluoro-4-methoxyphenyl)-N-(3-fluoro-4-{1H-pyrrolo[2,3-b]pyridin-4-yloxy}phenyl)-5-(4-fluorophenyl)-4-oxo-1,4-dihydropyridine-3-carboxamide]	2.3
O=C(Nc1ccc(Oc2ccnc3[nH]ccc23)c(F)c1)c1cn(-c2ccc(Cl)c(F)c2)cc(-c2ccc(F)cc2)c1=O [1-(4-chloro-3-fluorophenyl)-N-(3-fluoro-4-{1H-pyrrolo[2,3-b]pyridin-4-yloxy}phenyl)-5-(4-fluorophenyl)-4-oxo-1,4-dihydropyridine-3-carboxamide]	5

Reference: BindingDB's records for doi:10.1021/jm800476q (Bristol Myers Squibb, 2008)
